Measurements reported in US5985589A, “Lipid kinase” (ICOS Corporation, priority 1999, dated 1999).

System: p110δ
Assay: PI 3-kinase activity of immunoprecipitated FLAG-tagged p110δ (lipid kinase assay, TLC/autoradiography)
Type: biochemical, human
Conditions: at 100 nM wortmannin; p110δ immunoprecipitated from transfected COS cells
Protocol: The FLAG-tagged p110δ was expressed by transfecting pCDNA3:p110δFLAG into COS cells using DEAE dextran. Three days after transfection, expression of p110δ was determined by immunoprecipitations and western blotting using the M2 monoclonal antibody (Kodak Scientific Imaging Systems) according to the manufacturer's instructions. PI 3-kinase activity was determined as described [Hu et al., Mol. Cell. Biol., 13:7677-7688 (1993)].
To determine the PI 3-kinase activity of p110δ, 5μl of immunoprecipitated p110δ was mixed with 1 μl of PI/EGTA and incubated at room temperature for 10 minutes [PI/EGTA is 10 mg/ml PI(Sigma) in CHCl3, which has been dried under a vacuum, resuspended in 20 mg/ml DMSO in the presence or absence of various concentrations of the PI3 kinase inhibitor wortmannin and diluted 1:10 in 5 mM EGTA] and added to 1 μl 10× HM buffer (200 mM HEPES pH7.2, 50 mM MnCl2), 0.5 μl γ^32 PATP (10 mCi/ml-300 Ci/mmol), 1 μl 100 μM ATP, and 1.5 μl H2 O and incubated at 30° C. for 15 minutes. The reactions were terminated by addition of 100μl 1M HCl. Lipids were extracted with 200 μl CHCl3 /MeOH (1:1) by vortexing for 1 minute followed by centrifugation at 16,000×g for 2 minutes at room temperature. The lipids were further extracted with 80 μl 1M HCl/MeOH (1:1) by vortexing for 1 minutes, followed by centrifugation at 16,000×g for 2 minutes at room temperature. […]

COC[C@H]1OC(=O)c2coc3c2[C@@]1(C)C1=C(C3=O)[C@@H]2CCC(=O)[C@@]2(C)C[C@H]1OC(C)=O [wortmannin]
inhibition of PI 3-kinase activity (generation of phosphorylated lipids): approximately 50%
